# Results as given in patent publication US11801209B2, “Cooling and flavor boosting compositions” (Firmenich SA, priority 2017, dated 2023).
# Test system: expert panel of three subjects
# Experiment: Sensory evaluation of toothpaste test formulations by an expert panel: intensity of mint flavor and of cooling effect
# Assay type: in vivo, human
# Settings: test toothpaste formulation, summary of Table 8
# Method: The potentiation may be determined by any method readily selected by one of ordinary skill in the art. In some aspects, the potentiation is determined using a sensory panel. In the aspects where the potentiation is determined using a sensory panel a subject may contact their oral cavity with a composition, and rate the perceived flavor strength and cooing strength of the composition.
# In some aspects, the perceived flavor intensity may be rated from 0 to 5, wherein 0 is no perceived flavor intensity, 1 is a very low perceived flavor intensity, 2 is a low perceived flavor intensity, 3 is a moderate perceived flavor intensity, 4 is a high perceived flavor intensity, and 5 is a very high perceived flavor intensity.
# In some aspects, the perceived cooling intensity may be rated from 0 to 5, wherein 0 is no perceived cooling intensity, 1 is a very low perceived cooling intensity, 2 is a low perceived cooling intensity, 3 is a moderate perceived cooling intensity, 4 is a high perceived cooling intensity, and 5 is a very high perceived […].
# (§1) An expert panel of three subjects was asked to evaluate the intensity of the mint flavor and the intensity of the cooling effect of the test formulations. The subjects were asked to apply approximately 1 g of a test sample on to a toothbrush, and rinse the toothbrush under running water for 5 secs to moisten the paste and soften the bristles. The subjects then brushed their teeth with the applied test sample, taking care to minimize any contact with the subjects' gums. The subjects then expectorated the test sample, and rinsed their mouth with water. The subjects then ranked the intensity of the mint flavor and the intensity of the cooling effect of the test formulations. The subjects were asked to wait for 15 min between each test sample.
# as §1, with “subjects” for “subjects was”
row,SMILES,effect on perceived flavor intensity and perceived cooling intensity of the mint flavor
1,"Cc1noc(C)c1Cn1cc(N2C(=O)CN(Cc3cccc(O)c3)C2=O)cn1 [3-(1-((3,5-dimethylisoxazol-4-yl)methyl)-1H-pyrazol-4-yl)-1-(3-hydroxybenzyl)imidazolidine-2,4-dione]",able to increase both the perceived flavor intensity and the perceived cooling intensity
2,CCCCC[C@@H]1C(=O)CC[C@@H]1CC(=O)OC [(+)-methyl(1R)-cis-3-oxo-2-pentyl-1-cyclopentaneacetate],able to increase both the perceived flavor intensity and the perceived cooling intensity
3,O=C(O)C1CCCCC1 [cyclohexanecarboxylic acid],able to increase both the perceived flavor intensity and the perceived cooling intensity
4,COc1cc(/C=C/C(=O)O)ccc1O [ferulic acid],able to increase both the perceived flavor intensity and the perceived cooling intensity
5,COC(C)=O [methyl acetate],able to increase both the perceived flavor intensity and the perceived cooling intensity
6,"CCCC(CCC)NC(=O)c1ccc2c(c1)OCO2 [n-(1-propylbutyl)-1,3-benzodioxole-5-carboxamide]",able to increase both the perceived flavor intensity and the perceived cooling intensity
7,O=C(CCc1ccc(O)cc1)c1c(O)cc(O)cc1O [phloretin],able to increase both the perceived flavor intensity and the perceived cooling intensity
